Compound	logP
O=C(O)/C=C/c1ccc(O)cc1	1.79
O=C(O)/C=C/c1ccc2c(c1)OCO2	2.59
COc1ccc(C=CC(=O)O)cc1OC	2.34
COC(=O)/C=C/c1ccc(O)c(O)c1	2.22
COc1cc(C=CC(=O)O)ccc1O	1.87

Results, then the compound that gave them:

logP	Compound
4.45	O=C(C=Cc1ccccc1)OCC=Cc1ccccc1
3.15	O=C(O)C=CC=Cc1ccccc1
2.88	CCN(CC)CCOC(=O)C=Cc1ccc(OC)c(OC)c1
2.56	CCOC(=O)/C=C/c1ccc(O)c(O)c1
2.68	COc1ccc(/C=C/C(=O)O)cc1
2.84	CCN(CC)CCOC(=O)/C=C/c1cc(OC)c(OC)c(OC)c1
3.61	CCN(CC)CCOC(=O)/C=C/c1ccccc1
3.52	CCN(CC)CCOC(=O)/C=C/c1ccc(F)cc1

From the SangsterLogP compilation
